Columns and labels:
[1] = molecular target: T1, recombinant α1b-adrenoceptor (Homo sapiens, UniProt P35368); experiment: Radioligand binding ([3H]prazosin) to cloned α1b adrenoceptor; conditions: read-out: Affinity (Ki) α1b
T1 construct: expressed in transfected cells
T1 sequence (P35368 1-520): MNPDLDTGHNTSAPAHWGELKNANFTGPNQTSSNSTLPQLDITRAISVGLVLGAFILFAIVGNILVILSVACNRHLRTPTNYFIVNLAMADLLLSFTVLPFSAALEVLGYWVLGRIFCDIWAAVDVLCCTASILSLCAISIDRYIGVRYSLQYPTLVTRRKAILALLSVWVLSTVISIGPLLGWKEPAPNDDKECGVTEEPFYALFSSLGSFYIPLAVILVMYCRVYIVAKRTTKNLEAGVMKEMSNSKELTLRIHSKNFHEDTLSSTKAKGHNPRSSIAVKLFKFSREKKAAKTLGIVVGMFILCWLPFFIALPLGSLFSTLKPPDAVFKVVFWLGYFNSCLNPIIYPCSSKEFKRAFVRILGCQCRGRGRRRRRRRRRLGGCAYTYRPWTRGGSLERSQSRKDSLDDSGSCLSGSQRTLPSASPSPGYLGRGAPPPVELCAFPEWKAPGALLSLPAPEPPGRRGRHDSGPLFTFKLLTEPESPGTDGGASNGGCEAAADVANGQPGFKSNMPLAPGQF
Protocol: (§1) Determination of affinity for cloned subtypes of the α1-adrenoceptor was performed in membranes from cells transfected by electroporation with DNA expressing the genes encoding each α1-adrenoceptor subtype.
(§2) Non-specific binding was determined in the presence of 10 μM phentolamine. Incubation was stopped by addition of ice-cold Tris buffer and rapid filtration through Schleicher & Schuell GF52 filters that had been pretreated with 0.2%-polyethyleneimine.
(§3) Data were expressed as mean of Ki.

diastolic blood pressure = experiment: Blood pressure in anaesthetized dogs after intravenous administration; type: in vivo; conditions: dog, i.v.
Protocol: The experiments were performed according to the method of Imagawa et al. (J. Pharmacol. Methods, 22:103-111, 1989), with substantial modifications, as follows: adult male beagle dogs, weighing 8-10 kg, were anaesthetized with pentobarbital sodium (30 mg/kg i.v. and 2 mg/kg/h i.v.), intubated and spontaneously ventilated with room air. In order to monitor systemic blood pressure (BP), a polyethylene (PE) catheter was introduced into the aortic arch through the left femoral artery. A collateral of the left femoral vein was cannulated for infusion of anaesthetic, and the right femoral vein was cannulated for administration of compounds. For intraarterial (i.a.) injection of noradrenaline (NA), a PE catheter was introduced into the lower portion of the abdominal aorta via the right external iliac artery. Through such procedure, NA was selectively distributed to the lower urinary tract. A paramedian vertical suprapubic incision extending from the base of the pelvis to the mid-abdominal region was made and the bladder and the prostate were exposed. The bladder was manually emptied with a syringe. Prostatic urethral pressure was monitored with a Mikro-tip catheter (5F) introduced into the bladder via the external urethral meatus, and withdrawn until the pressure transducer was positioned in the prostatic region of the urethra. A ligature was secured between the neck of the bladder and urethra to isolate the response of the latter and to avoid any interaction with the bladder. Another ligature was put around the Mikro-tip catheter at the external meatus, to secure the catheter itself.
After a stabilizing period following the surgical procedure (30 minutes), in which arterial and prostatic urethral pressures were continuously monitored as basal values, i.a. administration of NA was made at intervals of 20 minutes.
The NA doses were chosen to produce an increase of at least 100% in urethral pressure. The test compounds were administered intravenously in a cumulative manner with intervals of 15-20 minutes between administrations. […]

[2] = molecular target: T2, recombinant α1d-adrenoceptor (Homo sapiens, UniProt P25100); experiment: Radioligand binding ([3H]prazosin) to cloned α1d adrenoceptor; conditions: read-out: Affinity (Ki) α1d
T2 construct: expressed in transfected cells
T2 sequence (P25100 1-572): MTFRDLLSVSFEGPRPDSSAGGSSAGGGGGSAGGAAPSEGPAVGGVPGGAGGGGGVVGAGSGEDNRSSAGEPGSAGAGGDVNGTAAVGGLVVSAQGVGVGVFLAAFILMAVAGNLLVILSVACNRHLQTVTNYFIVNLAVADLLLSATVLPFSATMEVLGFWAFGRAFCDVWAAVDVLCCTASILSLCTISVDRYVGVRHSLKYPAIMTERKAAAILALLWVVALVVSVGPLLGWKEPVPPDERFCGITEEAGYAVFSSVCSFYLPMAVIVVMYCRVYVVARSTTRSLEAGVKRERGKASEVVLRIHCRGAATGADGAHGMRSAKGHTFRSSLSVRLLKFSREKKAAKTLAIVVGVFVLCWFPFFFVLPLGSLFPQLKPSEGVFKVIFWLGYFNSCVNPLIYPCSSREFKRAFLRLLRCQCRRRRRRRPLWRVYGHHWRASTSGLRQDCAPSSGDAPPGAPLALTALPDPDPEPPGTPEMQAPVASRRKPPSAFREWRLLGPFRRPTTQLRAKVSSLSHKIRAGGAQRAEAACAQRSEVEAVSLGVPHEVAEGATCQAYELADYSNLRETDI
Protocol: as §1, §2, §3

[3] = molecular target: T3, human 5-HT1A-serotoninergic receptor (Homo sapiens, UniProt P08908); experiment: Radioligand binding ([3H]8-OH-DPAT) to cloned 5-HT1A receptor in HeLa cell membranes; conditions: read-out: Affinity (Ki) 5-HT1A
T3 construct: expressed in transfected cells; host or cells: HeLa
T3 sequence (P08908 1-422): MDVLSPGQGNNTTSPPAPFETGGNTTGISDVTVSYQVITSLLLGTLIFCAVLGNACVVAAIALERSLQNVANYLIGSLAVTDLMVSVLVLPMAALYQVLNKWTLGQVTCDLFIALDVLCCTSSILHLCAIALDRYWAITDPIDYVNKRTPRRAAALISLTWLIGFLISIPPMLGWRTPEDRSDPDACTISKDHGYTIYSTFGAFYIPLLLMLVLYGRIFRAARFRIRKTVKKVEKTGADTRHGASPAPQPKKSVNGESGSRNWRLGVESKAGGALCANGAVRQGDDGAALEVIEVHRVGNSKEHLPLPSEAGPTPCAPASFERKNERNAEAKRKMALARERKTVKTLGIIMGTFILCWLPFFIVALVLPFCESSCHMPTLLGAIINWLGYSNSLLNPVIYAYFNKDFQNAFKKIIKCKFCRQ
Protocol: HeLa cells were grown as monolayers in Dulbecco's modified Eagle's medium (DMEM), supplemented with 10% fetal calf serum and gentamicin (100 μg/mL), at 37° C. in 5% CO2. The cells were detached from the growth flask at 95% confluence by a cell scraper and were lysed in a buffer containing ice cold 5 mM Tris, 5 mM EDTA (pH 7.4). The homogenates were centrifuged at 40,000×g for 20 minutes and the membranes were resuspended in a small volume of ice-cold buffer containing 5 mM Tris and 5 mM, EDTA (pH 7.4), and immediately frozen and stored at −70° C. until use.
Non-specific binding was determined in the presence of 10 μM 5-HT. Incubation was stopped by addition of ice-cold Tris buffer and rapid filtration through Schleicher & Schuell GF52 filters that had been pretreated with 0.2%-polyethyleneimine.
as §3

| Ki [1] [nM] | Ki [2] [nM] | Ki [3] [nM] | SMILES | DBP ED25 (dose inducing a 25% decrease in diastolic blood pressure) (diastolic blood pressure) [µg/kg] |
| --- | --- | --- | --- | --- |
| 7.52 | 2.46 | 4.48 | COc1ccccc1N1CCN(CCCNC(=O)c2csc3c(=O)cc(-c4ccccc4)oc23)CC1 [Example 2, N-{3-[4-(2-Methoxyphenyl)-1-piperazinyl]propyl}-7-oxo-5-phenyl-7H-thieno[3,2-b]pyran-3-carboxamide] | 35.5 |
| 4.34 | 1.01 | 7.59 | O=C(NCCCN1CCN(c2ccccc2OCC(F)(F)F)CC1)c1csc2c(=O)cc(-c3ccccc3)oc12 [Example 5, 7-Oxo-5-phenyl-N-{3-[4-[2-(2,2,2-trifluoroethoxy)phenyl]-1-piperazinyl]propyl}-7H-thieno[3,2-b]pyran-3-carboxamide] | >1000 |
